Test results published in patent US20240246950A1, “Anilino-Pyrazole Derivatives, Compositions and Methods Thereof” (Ensem Therapeutics, priority 2022, published 2024).
Like-named read-outs stand apart in the source and are kept apart here.

What was measured:
CDK2/CycE1 = CDK2/CycE1 (Homo sapiens, UniProt P24941); assay: In vitro kinase TR-FRET assay CDK2/CycE1; assay type: biochemical; conditions: enzyme 0.6 nM, ATP 82 μM, read-out: CDK2 cyclinE1 activity assay: IC50
Method: (§1) In vitro kinase TR-FRET assays: CDK2/CycA2, CDK2/CycE1, CDK1/cyclinB and GSK3β
(§2) The test compounds were prepared as 10 mM stock solution in 100% DMSO. The stock solution was then serially diluted 3-fold in 100% DMSO to 10 concentrations. 200 nL of each diluted compound solution was transferred to 384-well plate in duplicate. To each well, 5 uL of enzyme and ATP mixture solution containing enzyme CDK2/CycA2, CDK2/CycE1, CDK1/cyclinB, or GSK30 (final concentrations 3 nM, 0.6 nM, 0.3 nM, 0.6 nM, respectively) and ATP (final concentrations 27 μM, 82 μM, 56 μM, 7.6 μM, respectively) in the assay buffer (50 mM HEPES, pH7.5, 10 mM MgCl2, 1 mM DTT, 0.01% BSA, 0.01% Triton X-100). For negative control, 5 uL of assay buffer was added instead. The plate was incubated at room temperature for 10 min. 5 uL of peptide solution containing ULight-4E-BP1 peptide (final concentrations 50 nM) in the assay buffer was subsequently added into each well to initiate the reaction. By incubation at room temperature for 1 hour, 10 uL of 2 nM Eu-anti-phospho-4E BP1 antibody was then added for detection. After one hour incubation at room temperature, all samples were subjected to read the TR-FRET signal on Envision with excitation at 340 nm and emission fluorescence at 615 nm and 665 nm. IC50 values were then calculated by plotting dose-response curves and then using the XLfit application in Excel software.

GSK3β = GSK3β (Homo sapiens, UniProt P49841); assay: In vitro kinase TR-FRET assay GSK3β; assay type: biochemical; conditions: enzyme 0.6 nM, ATP 7.6 μM
Sequence of GSK3β (P49841 whole entry, species assumed): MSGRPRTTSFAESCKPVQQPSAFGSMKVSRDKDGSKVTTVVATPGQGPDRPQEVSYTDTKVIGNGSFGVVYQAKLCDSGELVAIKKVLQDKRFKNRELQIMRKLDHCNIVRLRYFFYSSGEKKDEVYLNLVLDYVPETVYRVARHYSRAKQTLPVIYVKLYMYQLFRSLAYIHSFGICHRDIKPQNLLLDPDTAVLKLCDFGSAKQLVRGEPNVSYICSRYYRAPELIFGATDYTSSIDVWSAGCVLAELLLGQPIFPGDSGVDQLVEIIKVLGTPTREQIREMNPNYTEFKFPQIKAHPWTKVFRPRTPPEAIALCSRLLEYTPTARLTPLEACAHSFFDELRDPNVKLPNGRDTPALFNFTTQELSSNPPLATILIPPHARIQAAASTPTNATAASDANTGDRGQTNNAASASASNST
Method: as §1, §2

CDK1/cyclinB = CDK1/cyclinB (Homo sapiens, UniProt P06493); assay: In vitro kinase TR-FRET assay CDK1/cyclinB; assay type: biochemical; conditions: enzyme 0.3 nM, ATP 56 μM
Sequence of CDK1/cyclinB (P06493 whole entry): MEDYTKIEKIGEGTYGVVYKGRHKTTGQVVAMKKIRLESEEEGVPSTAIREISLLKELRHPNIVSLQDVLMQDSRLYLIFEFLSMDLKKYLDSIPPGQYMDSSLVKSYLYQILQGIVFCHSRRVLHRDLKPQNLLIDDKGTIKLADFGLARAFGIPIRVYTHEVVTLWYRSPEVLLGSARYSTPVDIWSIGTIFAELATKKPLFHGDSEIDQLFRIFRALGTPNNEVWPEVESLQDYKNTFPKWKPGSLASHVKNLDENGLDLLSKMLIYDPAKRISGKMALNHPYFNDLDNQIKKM
Sequence of CDK1/cyclinB (P14635 whole entry partner): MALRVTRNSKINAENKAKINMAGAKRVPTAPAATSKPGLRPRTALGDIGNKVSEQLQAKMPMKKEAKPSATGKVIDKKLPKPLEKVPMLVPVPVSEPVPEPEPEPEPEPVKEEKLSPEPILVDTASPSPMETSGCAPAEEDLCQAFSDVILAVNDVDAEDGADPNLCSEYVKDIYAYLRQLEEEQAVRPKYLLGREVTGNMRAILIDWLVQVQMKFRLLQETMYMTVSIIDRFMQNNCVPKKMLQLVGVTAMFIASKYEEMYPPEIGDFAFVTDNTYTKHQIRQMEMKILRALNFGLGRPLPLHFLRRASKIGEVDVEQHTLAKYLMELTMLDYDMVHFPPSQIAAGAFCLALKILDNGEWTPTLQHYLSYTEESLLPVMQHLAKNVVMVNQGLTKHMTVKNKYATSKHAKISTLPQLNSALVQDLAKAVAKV
Method: as §1, §2

TOV21G = assay: Cell proliferation (CyQUANT) TOV21G; assay type: cell-based; conditions: 7 days, read-out: Anti-proliferation assay: IC50 (nM) [Cell Line: TOV21G]
Method: (§3) Cancer cell lines, namely, OVCAR3, TOV21G were seeded onto 96 well cell culture plates at a density of 2500, 1000 or 3000 cells/well, respectively and cultured overnight. Cells treated with test compounds at 3-fold dose titration for 7 days at maximum final DMSO concentration of 0.01%. The CyQUANT® Cell Proliferation Assay, a highly sensitive fluorescence-based method for quantifying cells and assessing cell proliferation and cytotoxicity was employed, following manufacturer's procedure (ThermnoFisher, Cataloge #C35012). Plates were scanned with a laser-based Acumen Cellistra instrument by TTP LabTech at Ex/Em 480/520 nm. % Inhibition is calculated based on DMSO control wells on the same plate (ie, DMSO wells have 100% growth and 0% growth inhibition).

CDK2/CycA2 = CDK2/CycA2 (Homo sapiens, UniProt P24941); assay: In vitro kinase TR-FRET assay CDK2/CycA2; assay type: biochemical; conditions: enzyme 3 nM, ATP 27 μM, read-out: CDK2 cyclinA2 activity assay: IC50
Method: as §1, §2

OVCAR3 = assay: Cell proliferation (CyQUANT) OVCAR3; assay type: cell-based; conditions: OVCAR3, 7 days, read-out: Anti-proliferation assay: IC50 (nM) [Cell Line: OVCAR3]
Method: as §3

Molecule | IC50 (CDK2/CycE1) [nM] | IC50 (GSK3β) [nM] | IC50 (CDK1/cyclinB) [nM] | IC50 (TOV21G; Homo sapiens, 168 h) [nM] | IC50 (CDK2/CycA2) [nM] | IC50 (OVCAR3; Homo sapiens, OVCAR-3, 168 h) [nM] | IC50 (TOV21G) [nM] | IC50 (OVCAR3) [nM]
CC(C)NC(=O)O[C@@H]1CC[C@H](c2cc(Nc3ccc4c(c3F)CCS4(=O)=O)n[nH]2)C1 [Example 60, (1R,3S)-3-(3-((4-fluoro-1,1-dioxido-2,3-dihydrobenzo[b]thiophen-5-yl)amino)-1H-pyrazol-5-yl)cyclopentyl isopropylcarbamate] | < 50 | > 1000 | 50 to 500 | ≥ 1000 | < 50 | ≤ 500 |  | 
(1s,4s)-4-{5-[(1,1-dioxo-2,3-dihydro-1λ^6-benzothiophen-5-yl)amino]-2H-pyrazol-3-yl}cyclohexyl (prop-2-ylamino)methanoate [Example 16] | < 50 | 500 to 1000 | 50 to 500 |  | < 50 |  | ≥ 1000 | ≤ 500
CC(C)NC(=O)O[C@@H]1CC[C@H](c2cc(Nc3ccc4c(c3)C(C#N)CC4)n[nH]2)C1 (stereo partly drawn) [Example 31, (1R,3S)-3-{5-[(3-cyano-2,3-dihydro-1H-inden-5-yl)amino]-2H-pyrazol-3-yl}cyclopentyl (prop-2-ylamino)methanoate] | < 50 | 50 to 500 | 50 to 500 | ≤ 500 | < 50 | ≤ 500 |  | 
CC(C)NC(=O)O[C@@H]1CC[C@H](c2cc(Nc3ccc4c(c3)CNC4=O)n[nH]2)C1 [Example 8, (1R,3S)-3-(3-((1-oxoisoindolin-5-yl)amino)-1H-pyrazol-5-yl)cyclopentyl isopropylcarbamate] | < 50 | 500 to 1000 | 500 to 1000 | ≥ 1000 | < 50 | ≥ 1000 |  | 
CC(C)NC(=O)O[C@@H]1CC[C@H](c2cc(Nc3cccc4c3CN(C)S4(=O)=O)n[nH]2)C1 [Example 47, (1R,3S)-3-(3-((2-methyl-1,1-dioxido-2,3-dihydrobenzo[d]isothiazol-4-yl)amino)-1H-pyrazol-5-yl)cyclopentyl isopropylcarbamate] | < 50 | > 1000 | 50 to 500 | ≤ 500 | < 50 | ≤ 500 |  | 
CC(C)NC(=O)O[C@@H]1CC[C@H](c2cc(Nc3ccc4c(c3)CCS4(=O)=O)n[nH]2)C1 [Example 9, (1R,3S)-3-(3-((1,1-dioxido-2,3-dihydrobenzo[b]thiophen-5-yl)amino)-1H-pyrazol-5-yl)cyclopentyl isopropylcarbamate] | < 50 | 50 to 500 | 50 to 500 | ≥ 1000 | < 50 | ≤ 500 |  | 
CC(C)NC(=O)O[C@@H]1CC[C@H](c2cc(Nc3cccc4c3CCNS4(=O)=O)n[nH]2)C1 [Example 61, (1R,3S)-3-(3-((1,1-dioxido-3,4-dihydro-2H-benzo[e][1,2]thiazin-5-yl)amino)-1H-pyrazol-5-yl)cyclopentyl isopropylcarbamate] | < 50 | 500 to 1000 | < 50 | ≤ 500 | < 50 | ≤ 500 |  | 
CC(C)NC(=O)O[C@@H]1CC[C@H](c2cc(Nc3ccc4c(c3)OCCNS4(=O)=O)n[nH]2)C1 [Example 6, (1R,3S)-3-(3-((1,1-dioxido-3,4-dihydro-2H-benzo[b][1,4,5]oxathiazepin-7-yl)amino)-1H-pyrazol-5-yl)cyclopentyl isopropylcarbamate] | < 50 | 50 to 500 | 50 to 500 | ≥ 1000 | < 50 | ≤ 500 |  | 
CC(C)NC(=O)O[C@@H]1CC[C@H](c2cc(Nc3nccc4c3CCS4(=O)=O)n[nH]2)C1 [Example 57, (1R,3S)-3-{5-[(1,1-dioxo-2,3-dihydro-1λ^6-thieno[3,2-c]pyridin-4-yl)amino]-2H-pyrazol-3-yl}cyclopentyl (prop-2-ylamino)methanoate] | < 50 | 50 to 500 | 50 to 500 | 500 to 1000 | < 50 | ≤ 500 |  | 
CC(C)NC(=O)O[C@@H]1CC[C@H](c2cc(Nc3ccc4c(c3)S(=O)(=O)CC4)n[nH]2)C1 [Example 19, (1R,3S)-3-(3-((1,1-dioxido-2,3-dihydrobenzo[b]thiophen-6-yl)amino)-1H-pyrazol-5-yl)cyclopentyl isopropylcarbamate] | < 50 | 50 to 500 | 50 to 500 | ≤ 500 | < 50 | ≤ 500 |  | 
CC(C)NC(=O)O[C@@H]1CC[C@H](c2cc(Nc3cccc4c3CCS4(=O)=O)n[nH]2)C1 [Example 36, (1R,3S)-3-(3-((1,1-dioxido-2,3-dihydrobenzo[b]thiophen-4-yl)amino)-1H-pyrazol-5-yl)cyclopentyl isopropylcarbamate] | < 50 | 50 to 500 | 50 to 500 | ≤ 500 | < 50 | ≤ 500 |  | 
CC(C)NC(=O)O[C@H]1CC[C@@H](c2cc(Nc3ccc4c(c3)S(=O)(=O)CC4)n[nH]2)CC1 [Example 27, (1s,4s)-4-{5-[(1,1-dioxo-2,3-dihydro-1λ^6-benzo[b]thiophen-6-yl)amino]-2H-pyrazol-3-yl}cyclohexyl (prop-2-ylamino)methanoate] | < 50 | > 1000 | 50 to 500 | ≥ 1000 | < 50 | ≥ 1000 |  | 
CC(C)NC(=O)O[C@@H]1CC[C@H](c2cc(Nc3ccc4c(c3)NS(=O)(=O)C4)n[nH]2)C1 [Example 38, (1R,3S)-3-(3-((2,2-dioxido-1,3-dihydrobenzo[c]isothiazol-6-yl)amino)-1H-pyrazol-5-yl)cyclopentyl isopropylcarbamate] | < 50 | > 1000 | < 50 | ≥ 1000 | < 50 | ≤ 500 |  | 
CC(C)NC(=O)O[C@@H]1CC[C@H](c2cc(Nc3ccc(Cl)c4c3CCCS4(=O)=O)n[nH]2)C1 [Example 58, (1R,3S)-3-(3-((8-chloro-1,1-dioxidothiochroman-5-yl)amino)-1H-pyrazol-5-yl)cyclopentyl isopropylcarbamate] | < 50 | 500 to 1000 | 50 to 500 | ≥ 1000 | < 50 | ≤ 500 |  | 
CC(C)NC(=O)O[C@@H]1CC[C@H](c2cc(Nc3cccc4c3CS(=O)(=O)C4)n[nH]2)C1 [Example 40, (1R,3S)-3-{5-[(2,2-dioxo-1,3-dihydro-2λ^6-benzo[c]thiophen-4-yl)amino]-2H-pyrazol-3-yl}cyclopentyl (prop-2-ylamino)methanoate] | < 50 | > 1000 | 50 to 500 | ≥ 1000 | < 50 | ≤ 500 |  | 
CC(C)NC(=O)O[C@@H]1CC[C@H](c2cc(Nc3ccc4c(c3)N(C)CNS4(=O)=O)n[nH]2)C1 [Example 12, (1R,3S)-3-{3-[(4-methyl-1,1-dioxo-3,4-dihydro-2H-1λ^6,2,4-benzothiadiazin-6-yl)amino]-1H-pyrazol-5-yl}cyclopentyl N-(propan-2-yl)carbamate] | < 50 | 50 to 500 | < 50 |  | < 50 |  | ≥ 1000 | ≤ 500
